Source: PubChem BioAssay AID2305 (GlaxoSmithKline (GSK), 2010)

System: P. falciparum 3D7 growth, pLDH absorbance
Assay: P. falciparum 3D7 growth inhibition, dose response, strain 3D7 (AID 2305)

Row | Compound | IC50
1 | O=C(NC1CCCCC1)N(Cc1ccc(-c2ccc(CNC3CCCC3)cc2)cc1)C1CCN(Cc2ccccc2)CC1 | 780 nM
2 | O=C(/C=C/c1ccc(Cl)c(Cl)c1)NCCCCCN1CCCN(C(=O)Nc2cc(Cl)cc(Cl)c2)CC1 | 790 nM
3 | CS(=O)(=O)Nc1cccc(-c2cnc3[nH]cc(-c4ccc(C(=O)O)c(F)c4)c3c2)c1 | 830 nM
4 | CCNc1cc(C(=O)N[C@@H](Cc2ccccc2)[C@H](O)CN[C@H](C)C(C)(C)C)cc(N2CCCCS2(=O)=O)c1 | 820 nM
5 | COc1ccc(N(c2nc(-c3cc(Cl)ccc3Cl)cs2)C2CCNCC2)cc1 | 1090 nM
6 | CC(=O)Nc1ccc(CNCCc2ccc(NC(=O)c3cc(Cl)cc(Cl)c3)cc2)cc1 | 680 nM
7 | CC(=NNC(N)=O)C1=C(O)C(c2ccccc2)N(C2CCCCC2)C1=O (stereo not drawn) | 30 nM
8 | Cc1cnccc1/C=C/c1cccc(OCCCN2CCc3ccc(S(C)(=O)=O)cc3CC2)c1 | 610 nM
9 | CN1CC[C@@H](Oc2cc(Nc3nc(-c4ccc(C#N)cc4)cs3)ccc2Cl)C1 | 820 nM
10 | COc1ccc2nccc([C@@H](O)CN3CCC(NCc4nc5cc(F)c(F)cc5[nH]4)CC3)c2c1 | 530 nM
11 | Cc1cc(Nc2cc(Cl)cc(Cl)c2)nc(N)n1 | 1140 nM
12 | CC1CCN(Cc2cccc(C(=O)NCc3ccc(F)c(-c4cccc(CN5CCN[C@@H](C)C5)c4)c3)c2)CC1 | 1460 nM
13 | CCNc1cc(C(=O)N[C@@H](Cc2ccccc2)[C@H](O)CNC2(CCC(C)C)CC2)cc(N2CCCCS2(=O)=O)c1 | 1080 nM
14 | Cn1nccc1C(=O)NCCNCc1cccc(-c2ccc(-c3nc4ccc(C(F)(F)F)cc4[nH]3)s2)c1 | 150 nM
15 | O=C(Nc1ccc(-c2ccccc2)cc1)Nc1cccc(Cn2nc(Cl)c(N3CCNCC3)cc2=O)c1 | 370 nM
16 | COc1ccc2nccc(N3CCC(CCNCc4ccc5c(n4)NC(=O)CS5)CC3)c2n1 | 230 nM
17 | COc1cc2c(cc1C(F)(F)F)N(C(=O)Nc1cc(F)cc(-c3cncnc3)c1)CC2 | 500 nM
18 | Cc1ccc2sc(N(CCCn3ccnc3)C(=O)c3ccco3)nc2c1C | 970 nM
19 | COc1ccc2ncc(F)c(NC(=O)C3CCC(NCc4cc5cc(F)cc(F)c5[nH]4)CC3)c2n1 (stereo not drawn) | 1090 nM
20 | CN1CCCN(c2ccnc3cc4c(cc23)N(C(=O)c2ccc(Cl)cc2)CC4)CC1 | 790 nM
21 | CSc1c(CNCCCNc2cc(=O)c3ccccc3[nH]2)[nH]c2ccccc12 | 1120 nM
22 | Cc1c(CNCCCNc2cc(=O)c3ccccc3[nH]2)sc(C(F)F)c1Br | 870 nM
23 | Cc1ccc(S(=O)(=O)n2nccc2-c2c(-c3ccc(Cl)cc3)noc2C)cc1 | 810 nM

Row | Compound | IC50
24 | Cc1cc(NC(=O)c2cc(Br)ccc2Cl)n(-c2nc(C)c(C)c(=O)[nH]2)n1 | 1130 nM
25 | CCN(CC)Cc1cccc(-c2cc3c(-c4ccc(C(=O)O)c(C(C)C)c4)ccnc3[nH]2)c1OC | 320 nM
26 | COC(=O)c1cc(C(O)CNC(C)CCc2cccc(F)c2)ccc1O (stereo not drawn) | 1180 nM
27 | CCc1nc(N)nc(N)c1-c1ccc(C(C)C)cc1 | 830 nM
28 | O=C(Nc1ccc2c(c1)CCC2)c1cccc(N2CCN(c3ccncc3)CC2)c1 | 970 nM
29 | Cc1cc(N)c2cc(NC(=O)c3cccc(C(=O)Nc4ccc5nc(C)cc(N)c5c4)c3)ccc2n1 | 260 nM
30 | Cc1c(C)c2c(c(C)c1O)CCC(C)(CCC(=O)O)O2 (stereo not drawn) | 690 nM
31 | CC(O)CNc1nc2ccccc2n1CC(=O)Nc1cccc(C(=O)Nc2cccc(C(F)(F)F)c2)c1 (stereo not drawn) | 100 nM
32 | Cc1cc(N(C)CCCN2CCCCC2)nc(Nc2ccc(Cl)cc2)n1 | 190 nM
33 | O=C(Nc1cccc(-c2csc(-c3nc4ccccc4[nH]3)c2)c1)c1cc(=O)c2ccccc2[nH]1 | 230 nM
34 | CCCCN1CCCC[C@H]1[C@@H](O)c1ccnc2ccc(OCC)cc12 | 770 nM
35 | O=C(C=Cc1ccc(Cl)c(Cl)c1)NCCCCCN1CCC(CCNS(=O)(=O)c2ccc(F)cc2)CC1 | 1090 nM
36 | COc1ccc(C(C)Nc2nc(N)c3cc(OC)c(OC)cc3n2)cc1 (stereo not drawn) | 940 nM
37 | CCNc1cc(C(=O)N[C@@H](Cc2ccccc2)[C@H](O)CNCc2cccc(OC)c2)c(OC)c(N2CCCCS2(=O)=O)c1 | 690 nM
38 | CS(=O)(=O)NCCCNCc1cccc(-c2csc(-c3nc4ccccc4[nH]3)c2)c1 | 1010 nM
39 | COc1ccc(NC(=O)[C@H](Cc2ccccc2)Nc2cc(C)nc(NCCc3ccccn3)n2)cc1 | 830 nM
40 | COc1ccc(NS(=O)(=O)c2ccc(C(=O)Nc3ccc(C(F)(F)F)cc3)cc2)cc1N1CCN(CC2CC2)CC1 | 830 nM
41 | CC(C)(C)OC(=O)N1CCC(C2CCN(C(=O)OC(C)(C)C)CC2)CC1 | 1160 nM
42 | O=C(NC1CCC(N2CCCC(OCc3ccccc3)C2)CC1)c1cc2ccccc2[nH]1 (stereo not drawn) | 1210 nM
43 | Cc1nc2nc(N)nc(N)c2c(C)c1Cc1ccc(N)cc1 | 640 nM
44 | Cc1ccccc1Nc1nc(NCCc2ccccc2)nc2ccccc12 | 1260 nM
45 | O=C(Nc1ccccc1)N(Cc1ccccc1-c1cccc(CNCc2ccc3c(c2)OCO3)c1)C1CCN(Cc2ccccc2)CC1 | 110 nM
46 | N#Cc1ccc(N2CCN(Cc3ccc(-c4ccc(-c5nc6ccc(C(F)(F)F)cc6[nH]5)cc4)cc3)CC2)nc1 | 960 nM

Row | Compound | IC50
47 | Cc1cc(NC(=O)Nc2ccc3nc(C)oc3c2)c2cc(Cl)ccc2n1 | 1120 nM
48 | Cc1ccc(-c2cncc(-c3cc(NC4CCN(Cc5ccccc5)CC4)nc(-c4ccccc4)n3)c2)cc1 | 720 nM
49 | O=C(Nc1ccc(C(=O)Oc2cccc3ccccc23)cc1)N[C@@H](Cc1ccc(O)cc1)C(=O)NC1CCN(Cc2ccc(O)cc2)C1 (stereo partly drawn) | 910 nM
50 | O=C(/C=C/c1ccc(Cl)c(Cl)c1)NCCC1CCC(N2CCC(c3c[nH]c4ccc(O)cc34)CC2)CC1 (stereo not drawn) | 760 nM
51 | Cc1cc(C(=O)NCc2ccc(-c3c(C)noc3C)cc2)n(-c2ccccc2)n1 | 820 nM
52 | O=S(=O)(c1ccc(Cl)cc1Cl)N1CCCCC(c2ccc(C(F)(F)F)cc2)=N1 | 160 nM
53 | COc1ccc(C(=O)N2CCC3(CC2)C(=O)N(CC(=O)NC2CCCCC2)CN3c2ccccc2)c(OC)c1 | 220 nM
54 | CCCCCN(C(=O)Nc1cc(C(F)(F)F)cc(C(F)(F)F)c1)C(C)c1nc2ccccc2c(=O)n1CC (stereo not drawn) | 790 nM
55 | Fc1ccc(C=NNc2ccnc3ccccc23)cc1 | 710 nM
56 | Fc1ccc2[nH]cc(CCN3CCC(CNCc4ccccc4)CC3)c2c1 | 30 nM
57 | C=CCOC(=O)N1CCC(CNCc2ccc(-c3ccc(-c4nc5ccccc5[nH]4)s3)cc2)C1 (stereo not drawn) | 230 nM
58 | CC(C)N1CCC(N(Cc2ccc(-c3ccc(Cl)cc3)cc2)C(=O)Cn2c(CCc3cccc(F)c3F)cc(=O)c3ccccc32)CC1 | 930 nM
59 | COc1ccc2c(NN=Cc3ccc(Cl)cc3)ccnc2c1 | 870 nM
60 | N#CCCN1CCN(Cc2ccc(-c3ccc(-c4nc5ccc(F)cc5[nH]4)s3)cc2)CC1 | 660 nM
61 | COc1ccc2ncc(F)c(CCN3CCC(NCc4cc(C)c5c(c4)OCCO5)CC3)c2n1 | 490 nM
62 | CCNc1cc(C(=O)N[C@@H](Cc2ccc(F)c(F)c2)[C@H](O)CNC2CCCCC2)cc(N2CCCCS2(=O)=O)c1 | 120 nM
63 | Cc1cc(NN=Cc2ccc(Cl)cc2)c2ccccc2n1 | 790 nM
64 | CCCCCCCN(Cc1ccc(OC(C)(C)C(=O)OCC)cc1)C(=O)Cc1ccc(F)cc1F | 1030 nM
65 | Cc1ccccc1NC(=O)C1CSCN1C(=O)OCc1ccccc1 (stereo not drawn) | 980 nM
66 | COc1ccccc1CN1CCC(NC(=O)c2ccc(-c3cccc(Cl)c3)s2)CC1 | 1420 nM
67 | COc1ccc(O)c(C(=O)c2cnc3c(c2)c(-c2ccc(F)cc2)c(C#N)c(=O)n3C)c1 | 790 nM
68 | O=C(C=Cc1ccc(Cl)c(Cl)c1)NCCCCCN1CCC(CCCNC(=O)c2sc3ccccc3c2Cl)CC1 | 400 nM
